From US20120020958A1, “FIBCD1 FOR THE PREVENTION AND TREATMENT OF DISEASES” (Dansk Universitet, priority 2008, published 2012)
Changes are numbered by the printed parent chain. Names may count otherwise. Blank lines part the entries; values can stand above or below the molecule they belong to.

Legend:
[1] = biological target: T1, FIBCD1 (the FReD of FIBCD1) (Homo sapiens, UniProt Q8N539); test: Pull-down assay of FIBCD1 (FReD) with insoluble polysaccharides; assay type: binding; settings: 20 μg FIBCD1 FReD, 2 mg insoluble substance
T1 construct: 20 μg of the FIBCD1 (the FReD of FIBCD1)
T1 sequence (Q8N539 235-458 limits assumed): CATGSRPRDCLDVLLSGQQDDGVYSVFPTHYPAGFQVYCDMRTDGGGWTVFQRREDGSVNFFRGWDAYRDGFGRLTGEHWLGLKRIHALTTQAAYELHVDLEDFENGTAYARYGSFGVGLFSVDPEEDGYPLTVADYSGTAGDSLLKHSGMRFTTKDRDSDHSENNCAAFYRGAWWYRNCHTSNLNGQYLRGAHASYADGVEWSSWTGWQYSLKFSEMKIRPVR
Procedure: (B) Microtiterplates were coated with LTA, mannan, peptidoglycan or NAc-BSA and increasing concentrations of FIBCD1 was added. (C) Pull-down assays where 20 μg of the FIBCD1 (the FReD of FIBCD1) or as a positive control 20 μg of wheat germ agglutinin (WGA) was added to 2 mg insoluble chitin, cellulose, zymozane or beta-glucan. […] BSA was used as control. Pellet fractions were analyzed by SDS-PAGE and Coomassie blue staining.

[2] = system: mice; settings: cited from earlier work
[3] = system: allergic mouse model; settings: oral administration; cited from earlier work
[4] = system: spleen cells isolated from the ragweed-immunized mice; settings: ragweed/chitin stimulation, 3 days; cited from earlier work
[5] = biological target: T2, acetylated BSA (Bos taurus, UniProt P02769); test: Binding of mutated forms of the FReD of FIBCD1 to acetylated BSA (ELISA); settings: site directed mutagenesis of FIBCD1 FReD
T2 construct: purchased Sigma
Procedure: Microtiter plates were coated with acetylated BSA or BSA and blocked with TBS/Tw before being incubated with FIBCD1 samples diluted in TBS/Tw (5 mM CaCl2). The FIBCD1 samples were added from 1 μg/ml in a twofold dilution series. The signal from binding of protein to BSA was subtracted from the signal from binding to acetylated BSA. The resulting normalized signals were then expressed as a percentage of the signal from FIBCD1FReD at 1 μg/ml, which was set at 100%. The experiment was repeated three times.
Generation of HEK293 and CHO cells expressing recombinant forms of FIBCD1 In order to generate cells expressing recombinant forms of FIBCD1, the Flp-In™ system (Invitrogen) was utilized. In this system the cDNA is integrated into a specific genomic site. Flp-In™ T-REx™ HEK293 cells or CHO Flp-In™ T-REx™ (Invitrogen) was used as host cells. HEK293 cells were cultured in Dulbecco's modified Eagle medium (DMEM; Invitrogen) and CHO cells in Hams F12 medium (Invitrogen) both containing penicillin (100 units/ml), streptomycin (100 μg/ml), 2 mM L-glutamine and 10% fetal bovine serum (Invitrogen). At approximately 50% confluency, cells were co-transfected (ratio 1:9) with the pSecTag/FRT/V5-His TOPO® TA or pcDNA/FRT/V5-His TOPO® TA containing the FIBCD1 construct and the pOG44 vector encoding Flp recombinase, using the jetPEI™ transfection kit (Polyplus-transfection SAS, Illkirch cedex, France). The recombinase mediates insertion of the expression vectors into the genomic integration site. Integration of the vectors confers hygromycin resistance. Thus, 48 hours after transfection the HEK293 and CHO cells were selected for stable integration of the FIBCD1 constructs with 150 μg/ml and 800 μg/ml hygromycin B (Invitrogen), respectively. Hygromycin resistant clones were obtained after two weeks of culture. At confluence cells were transferred to DMEM or Hams F12 medium without serum. Supernatants were harvested after 72 hours of expression and analyzed by SDS-PAGE and Western blotting. […]

T2 sequence (P02769 25-607): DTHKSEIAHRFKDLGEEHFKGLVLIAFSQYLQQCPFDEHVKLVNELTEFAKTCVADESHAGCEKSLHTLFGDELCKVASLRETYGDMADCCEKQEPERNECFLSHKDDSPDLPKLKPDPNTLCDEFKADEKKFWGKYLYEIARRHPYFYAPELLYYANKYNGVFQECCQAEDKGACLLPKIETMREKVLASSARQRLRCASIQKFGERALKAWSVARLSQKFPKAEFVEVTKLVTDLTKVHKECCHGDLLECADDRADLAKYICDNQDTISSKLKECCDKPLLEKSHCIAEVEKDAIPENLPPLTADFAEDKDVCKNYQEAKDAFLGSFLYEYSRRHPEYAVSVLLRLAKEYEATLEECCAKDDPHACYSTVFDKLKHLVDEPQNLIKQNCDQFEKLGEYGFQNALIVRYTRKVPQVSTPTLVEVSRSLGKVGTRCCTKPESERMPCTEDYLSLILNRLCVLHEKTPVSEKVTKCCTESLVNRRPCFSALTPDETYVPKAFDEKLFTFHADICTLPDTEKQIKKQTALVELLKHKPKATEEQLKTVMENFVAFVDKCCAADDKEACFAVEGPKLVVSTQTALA

binding of FIBCD1 in pull-down [1]: no binding
Molecule: zymosan

binding of FIBCD1 in pull-down [1]: detected
Molecule: chitin
accumulation of IL-4 and IL-13 expressing cells including Th2 cells, eosinophils and basophils ([2]; instilled in the lung (or given intraperitoneally)): induced the accumulation
lung eosinophilia [3]: down-regulates
serum IgE levels [3]: down-regulates
IFN-γ production [4]: increase
IL-4 levels [4]: significant decreases
IL-5 levels [4]: significant decreases
IL-10 levels [4]: significant decreases

binding of FIBCD1 in pull-down [1]: no binding
Molecule: cellulose

Molecule: AMCase: acidic mammalian chitinase, an endo-β-1,3... see b8: endo-β-1,4-N-acetylglucosaminidase
chitin-induced cell infiltration ([2]; pre-treatment with AMCase): inhibited

binding of FIBCD1 in pull-down [1]: no binding
Molecule: β-1,3-glucan

B1: H415G: single mutation form of the FReD of FIBCD1 (protein)
chain: ATGSRPRDCLDVLLSGQQDDGVYSVFPTHYPAGFQVYCDMRTDGGGWTVFQRREDGSVNFFRGWDAYRDGFGRLTGEHWLGLKRIHALTTQAAYELHVDLEDFENGTAYARYGSFGVGLFSVDPEEDGYPLTVADYSGTAGDSLLKHSGMRFTTKDRDSDHSENNCAAFYRGAWWYRNCGTSNLNGQYLRGAHASYADGVEWSSWTGWQYSLKFSEMKIRPVREDR
binding of mutated FIBCD1 to NAc-BSA [5]: completely arrogate

B2: A432V: single mutation form of the FReD of FIBCD1 (protein)
chain: B1 chain with G180H, A197V
binding of mutated FIBCD1 to NAc-BSA [5]: completely arrogate

B3: W443S: single mutation form of the FReD of FIBCD1 (protein)
chain: B1 chain with G180H, W208S
binding of mutated FIBCD1 to NAc-BSA [5]: partially arrogated
